# Reference: patent US20110159111A1, “PHARMACEUTICAL COMBINATIONS” (priority 2006, published 2011)
# Where two headings read alike, the source gives them in different places.
# Columns and labels:
# [1] = antitumour agent; cited from earlier work
# [2] = tested on: chronic lymphocytic leukaemia; details: initial therapy, symptomatic CLL patients; cited from earlier work
# [3] = tested on: human colon carcinoma cell line HCT 116; assay: Anti-proliferative activity, HCT-116 cell line (Set B); assay type: cell-based; details: HCT 116 (ECACC No. 91091005), Set B Example 1
# Source text: Anti-proliferative Activity
# See Example 15 of WO 2006/077426 at pages 100-101 (which is incorporated herein by reference).
# [4] = Vapour sorption/desorption analysis (IgaSorp balance); assay type: physicochemical
# Method: Approximately 20 mg of sample was placed into a wire-mesh vapour sorption balance pan and loaded into an ‘IgaSorp’ vapour sorption balance (Hiden Analytical Instruments) held at 25+/−0.1° C. The sample was then dried by maintaining a 0% humidity environment (using mass flow control apparatus) until no further weight change was recorded. Subsequently, the sample was then subjected to a ramping profile from 0-90% relative humidity (% RH) at 10% RH increments, maintaining the sample at each step until equilibration had been attained (99.5% step completion).
# Upon reaching equilibration, the % RH within the apparatus was ramped to the next step and the equilibration procedure repeated. After completion of the sorption cycle, the sample was then dried using the same procedure. The weight change during the sorption/desorption cycles was then monitored, allowing for the hygroscopic nature of the sample to be determined.
# [5] = Thermogravimetric analysis (TGA); assay type: physicochemical; details: heated at 10° C./min
# Method: Approximately 5 mg of sample (accurately weighed) was placed into a platinum TGA pan and loaded into a TGA 7 gravimetric analyser. The sample under study was then heated at a rate of 10° C./min (from ambient to 300° C.) and the resulting change in weight monitored. A dry nitrogen purge gas at a flow rate of 20 ml/min was used to produce an inert atmosphere and prevent oxidation of the sample during heating. Prior to analysis the instrument was weight calibrated using a 100 mg reference standard and temperature calibrated using an Alumel reference standard (using the Curie point transition temperature).
# [6] = tested on: Chronic Myeloid Leukaemia; details: CML patients in blast phase; cited from earlier work
# [7] = Solubilities of acid addition salts of 1-(2,6-difluorophenyl)-N-[3-(5-morpholin-4-ylmethyl-1H-benzimidazol-2-yl)-1H-pyrazol-4-yl]-urea; assay type: physicochemical
# Method: This was carried out as described in Example 61 of WO 2006/070195 at pages 173 to 175 (the content of which is incorporated herein by reference).
# PKC = details: cited from earlier work
# PKG = biological target: T1, PKG (Homo sapiens, UniProt Q13976); details: cited from earlier work
# T1 sequence (Q13976 1-671): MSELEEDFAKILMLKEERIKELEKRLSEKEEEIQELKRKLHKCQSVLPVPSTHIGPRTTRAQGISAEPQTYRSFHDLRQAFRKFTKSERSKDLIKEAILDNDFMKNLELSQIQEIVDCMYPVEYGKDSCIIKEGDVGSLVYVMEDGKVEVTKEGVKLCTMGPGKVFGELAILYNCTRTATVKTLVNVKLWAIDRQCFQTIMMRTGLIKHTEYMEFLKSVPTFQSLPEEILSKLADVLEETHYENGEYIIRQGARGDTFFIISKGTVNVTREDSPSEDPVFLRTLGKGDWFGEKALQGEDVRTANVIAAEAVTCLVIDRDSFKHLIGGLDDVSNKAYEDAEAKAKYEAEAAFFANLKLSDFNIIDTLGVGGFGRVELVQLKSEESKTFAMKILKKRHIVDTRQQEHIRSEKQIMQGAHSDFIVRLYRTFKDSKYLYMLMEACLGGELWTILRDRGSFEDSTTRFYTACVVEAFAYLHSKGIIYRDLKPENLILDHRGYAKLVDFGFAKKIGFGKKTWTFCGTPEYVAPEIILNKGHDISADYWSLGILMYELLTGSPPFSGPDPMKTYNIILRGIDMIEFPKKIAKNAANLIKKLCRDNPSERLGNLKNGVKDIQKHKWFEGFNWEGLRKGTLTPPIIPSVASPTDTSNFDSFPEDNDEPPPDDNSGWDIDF
# OVCAR-3 tumour cells = details: concentrations of 50 and 100 microM; cited from earlier work
# [8] = tested on: P-glycoprotein-overexpressing subline of CCRF-CEM; details: cited from earlier work
# [9] = clinical studies; cited from earlier work
# [10] = tested on: Acute Promyelocytic Leukemia; details: APL patients; cited from earlier work
# [11] = Gravimetric vapour sorption (GVS); assay type: physicochemical; details: forms of 1-cyclopropyl-3-[3-(5-morpholin-4-ylmethyl-1H-benzoimidazol-2-yl)-1H-pyrazol-4-yl]-urea; 25° C., 0-95% RH
# Method: E. Gravimetric Vapour Sorption (GVS):
# The sample size was ca. 10-25 mg. […] The sample was loaded and unloaded at room humidity and temperature (ca. 40% RH, 25° C.) and analysed afterwards by XRPD (using a Bruker AXS C2 GADDS system).
compound,measurement,setting,value
CCN[C@H]1CO[C@@H](O[C@H]2[C@H](O[C@H]3C#C/C=C\C#C[C@]4(O)CC(=O)C(NC(=O)OC)=C3/C4=C\CSSSC)O[C@H](C)[C@@H](NO[C@H]3C[C@H](O)[C@H](SC(=O)c4c(C)c(I)c(O[C@@H]5O[C@@H](C)[C@H](O)[C@@H](OC)[C@H]5O)c(OC)c4OC)[C@@H](C)O3)[C@@H]2O)C[C@@H]1OC [Calicheamicin],potency relative to adriamycin,[1],"over 1,000 times"
Nc1nc(F)nc2c1ncn2[C@@H]1O[C@H](CO)[C@@H](O)[C@@H]1O [fludarabine],duration of progression-free survival,[2],33 months
same,rate of complete responses,[2],27%
O=C(NC1CCNCC1)c1n[nH]cc1NC(=O)c1c(Cl)cccc1Cl [Example 1],IC50,[3],< 20 µM
CS(=O)(=O)N1CCC(NC(=O)c2n[nH]cc2NC(=O)c2c(Cl)cccc2Cl)CC1,weight loss during initial drying,"[4]; 0% RH, 25° C.",approximately 0.01%
same,total weight increase upon equilibration,"[4]; stepwise 0-90% RH, equilibration at 90% RH, 25° C.",0.24%
same,hygroscopicity / hydrate formation,[4]; storage in elevated humidity conditions,physically stable with regard to hygroscopicity
same,TGA significant event (thermally induced partial degradation prior to melt),[5]; ambient to 300° C.,about 288 °C
same,TGA mass loss,"[5]; up to 150° C., crystals from Example 5 Step 8",approximately 0.2%
"Cc1ccc(NC(=O)c2ccc(CN3CCN(C)CC3)cc2)cc1Nc1nccc(-c2cccnc2)n1 [imatinib, 4-[(4-methyl-1-piperazinyl)methyl]-N-[4-methyl-3-[[4-(3-pyridinyl)-2-ylpyridinyl]amino]-phenyl]benzamide methanesulfonate]",duration of remissions,[6],2-6 months
"O=C(Nc1c[nH]nc1-c1nc2cc(CN3CCOCC3)ccc2[nH]1)Nc1c(F)cccc1F [esylate, 1-(2,6-difluorophenyl)-N-[3-(5-morpholin-4-ylmethyl-1H-benzimidazol-2-yl)-1H-pyrazol-4-yl]-urea]",solubility,[7],> 100 mg/mL
O=S(=O)(NCCNCC=C(c1ccccc1)c1ccccc1)c1cccc2cnccc12 [NL-71-101],IC50,PKC,104 µM
same,IC50,PKG,36 µM
same,apoptosis,OVCAR-3 tumour cells,induced apoptosis
"1-(2,6-difluorophenyl)-N-[3-(5-morpholin-4-ylmethyl-1H-benzimidazol-2-yl)-1H-pyrazol-4-yl]-urea [D-glucuronate]",solubility,"[7]; acid addition salts of 1-(2,6-difluorophenyl)-N-[3-(5-morpholin-4-ylmethyl-1H-benzimidazol-2-yl)-1H-pyrazol-4-yl]-urea, liquid carrier (e.g. water)",greater than 25 mg/ml
C/C1=C/C[C@@H](/C(C)=C/c2csc(C)n2)OC(=O)C[C@H](O)C(C)(C)C(=O)[C@H](C)[C@@H](O)[C@@H](C)CCC1 [desoxyepothilone B],IC50,[8],0.017 µM
CCCCCCCCCCCCCCCCCCOP(=O)([O-])OC1CC[N+](C)(C)CC1 [KRX-0401],half-life,[9],~100 h
"CC1=C(/C=C/C(C)=C/C=C/C(C)=C/C(=O)O)C(C)(C)CCC1 [Tretinoin, all-trans retinoic acid]",remissions induced,[10],64-100%
"C[C@H](O)C(=O)O.O=C(Nc1c[nH]nc1-c1nc2cc(CN3CCOCC3)ccc2[nH]1)NC1CC1 [L-lactate salt, 1-cyclopropyl-3-[3-(5-morpholin-4-ylmethyl-1H-benzoimidazol-2-yl)-1H-pyrazol-4-yl]-urea]",GVS isotherm behaviour,[11],does not display hygroscopic behaviour and does not form a hydrate
